# According to ChEMBL document CHEMBL5442219:
# What was measured:
# Conditions in all cases: Compound concentration 10 µM
# [1] = biological target: T1, Alpha-2A adrenergic receptor (Homo sapiens) (UniProt P08913)
# T1 sequence (whole entry): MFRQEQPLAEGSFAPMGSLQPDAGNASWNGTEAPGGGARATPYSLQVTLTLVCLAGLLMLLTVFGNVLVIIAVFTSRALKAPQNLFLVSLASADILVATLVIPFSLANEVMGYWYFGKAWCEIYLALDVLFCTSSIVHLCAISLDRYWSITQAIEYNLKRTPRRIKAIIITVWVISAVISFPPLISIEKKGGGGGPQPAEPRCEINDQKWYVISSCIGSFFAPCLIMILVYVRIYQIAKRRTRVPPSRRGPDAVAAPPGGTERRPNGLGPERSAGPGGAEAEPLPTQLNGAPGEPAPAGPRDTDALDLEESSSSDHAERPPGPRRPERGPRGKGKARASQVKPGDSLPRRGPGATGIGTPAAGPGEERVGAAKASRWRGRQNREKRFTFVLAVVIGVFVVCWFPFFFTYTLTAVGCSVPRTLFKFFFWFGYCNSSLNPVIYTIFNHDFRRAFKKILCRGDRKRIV
# [2] = biological target: T2, Alpha-2C adrenergic receptor (Homo sapiens) (UniProt P18825)
# T2 sequence (whole entry): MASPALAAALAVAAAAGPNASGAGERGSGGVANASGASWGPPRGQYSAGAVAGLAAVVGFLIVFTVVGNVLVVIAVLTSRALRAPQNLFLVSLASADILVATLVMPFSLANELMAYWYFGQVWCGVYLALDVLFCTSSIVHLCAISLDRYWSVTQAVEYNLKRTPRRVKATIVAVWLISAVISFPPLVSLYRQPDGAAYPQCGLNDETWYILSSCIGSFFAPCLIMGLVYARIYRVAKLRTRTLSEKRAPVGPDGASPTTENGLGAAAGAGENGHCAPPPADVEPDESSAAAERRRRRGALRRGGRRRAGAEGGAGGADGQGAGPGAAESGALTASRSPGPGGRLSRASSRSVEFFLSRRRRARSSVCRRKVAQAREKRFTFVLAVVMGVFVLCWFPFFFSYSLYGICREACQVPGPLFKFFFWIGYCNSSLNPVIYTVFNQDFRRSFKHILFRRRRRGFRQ
# [3] = biological target: T3, Muscarinic acetylcholine receptor M1 (Homo sapiens) (UniProt P11229)
# T3 sequence (whole entry): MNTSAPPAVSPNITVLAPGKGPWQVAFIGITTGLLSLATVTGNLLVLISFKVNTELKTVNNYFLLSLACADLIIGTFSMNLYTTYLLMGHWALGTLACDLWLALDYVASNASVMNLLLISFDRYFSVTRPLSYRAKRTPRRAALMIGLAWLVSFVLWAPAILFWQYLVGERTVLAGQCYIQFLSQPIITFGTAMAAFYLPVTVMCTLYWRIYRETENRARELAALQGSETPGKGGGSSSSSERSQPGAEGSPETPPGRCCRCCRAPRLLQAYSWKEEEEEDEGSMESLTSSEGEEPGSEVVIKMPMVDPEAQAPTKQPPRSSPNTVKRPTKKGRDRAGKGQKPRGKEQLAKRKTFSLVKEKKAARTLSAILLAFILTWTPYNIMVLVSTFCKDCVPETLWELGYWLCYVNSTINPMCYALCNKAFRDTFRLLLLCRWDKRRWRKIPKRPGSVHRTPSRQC
# [4] = biological target: D(1B) dopamine receptor (Homo sapiens) (UniProt P21918)
# [5] = biological target: Histamine H1 receptor (Homo sapiens) (UniProt P35367)
# [6] = biological target: Histamine H3 receptor (Homo sapiens) (UniProt Q9Y5N1)
# [7] = biological target: Histamine H4 receptor (Homo sapiens) (UniProt Q9H3N8)
# [8] = biological target: 5-hydroxytryptamine receptor 2B (Homo sapiens) (UniProt P41595)
# [9] = biological target: Mu-type opioid receptor (Homo sapiens) (UniProt P35372)
# [10] = biological target: Beta-3 adrenergic receptor (Homo sapiens) (UniProt P13945)
# [11] = biological target: Histamine H2 receptor (Homo sapiens) (UniProt P25021)
# [12] = biological target: T4, Alpha-1D adrenergic receptor (Homo sapiens) (UniProt P25100)
# T4 sequence (whole entry): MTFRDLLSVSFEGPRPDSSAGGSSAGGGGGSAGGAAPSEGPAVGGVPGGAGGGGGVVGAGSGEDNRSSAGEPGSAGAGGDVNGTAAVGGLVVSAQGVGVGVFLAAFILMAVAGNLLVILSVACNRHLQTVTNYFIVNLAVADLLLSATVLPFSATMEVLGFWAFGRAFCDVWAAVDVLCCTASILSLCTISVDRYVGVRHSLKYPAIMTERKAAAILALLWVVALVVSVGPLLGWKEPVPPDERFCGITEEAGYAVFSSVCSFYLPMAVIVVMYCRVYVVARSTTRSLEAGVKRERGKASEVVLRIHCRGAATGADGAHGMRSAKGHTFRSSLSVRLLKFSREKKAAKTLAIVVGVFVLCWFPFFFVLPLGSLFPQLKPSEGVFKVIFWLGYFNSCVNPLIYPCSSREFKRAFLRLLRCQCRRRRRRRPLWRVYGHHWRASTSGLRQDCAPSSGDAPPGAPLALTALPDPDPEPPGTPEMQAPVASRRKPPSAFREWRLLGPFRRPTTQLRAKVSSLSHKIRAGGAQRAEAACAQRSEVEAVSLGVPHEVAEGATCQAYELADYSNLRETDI
# [13] = biological target: 5-hydroxytryptamine receptor 1D (Homo sapiens) (UniProt P28221)
# 5-hydroxytryptamine receptor 1D (Homo sapiens), sequence (P28221 whole entry): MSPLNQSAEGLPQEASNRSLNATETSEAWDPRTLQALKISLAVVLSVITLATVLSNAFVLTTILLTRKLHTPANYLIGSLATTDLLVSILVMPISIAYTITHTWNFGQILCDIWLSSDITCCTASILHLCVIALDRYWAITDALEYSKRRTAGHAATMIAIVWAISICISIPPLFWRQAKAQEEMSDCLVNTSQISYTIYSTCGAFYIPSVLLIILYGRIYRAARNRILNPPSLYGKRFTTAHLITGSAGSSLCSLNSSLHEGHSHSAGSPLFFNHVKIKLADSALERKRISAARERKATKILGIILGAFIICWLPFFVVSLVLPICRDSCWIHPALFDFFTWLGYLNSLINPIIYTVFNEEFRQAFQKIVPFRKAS
# Histamine H1 receptor (Homo sapiens), sequence (P35367 whole entry): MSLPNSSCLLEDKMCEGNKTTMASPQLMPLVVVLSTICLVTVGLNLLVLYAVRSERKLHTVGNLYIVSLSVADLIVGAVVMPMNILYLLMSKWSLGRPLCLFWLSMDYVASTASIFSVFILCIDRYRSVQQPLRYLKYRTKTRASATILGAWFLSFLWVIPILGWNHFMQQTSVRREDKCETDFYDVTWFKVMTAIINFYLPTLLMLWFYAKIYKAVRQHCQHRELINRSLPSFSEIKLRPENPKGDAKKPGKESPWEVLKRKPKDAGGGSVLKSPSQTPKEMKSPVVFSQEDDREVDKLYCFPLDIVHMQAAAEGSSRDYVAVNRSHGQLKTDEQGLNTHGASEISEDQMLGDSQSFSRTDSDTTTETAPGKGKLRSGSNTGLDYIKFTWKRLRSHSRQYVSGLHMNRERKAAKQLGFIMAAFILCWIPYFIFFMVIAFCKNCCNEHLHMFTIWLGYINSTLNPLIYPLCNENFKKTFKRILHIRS
# Histamine H4 receptor (Homo sapiens), sequence (Q9H3N8 whole entry): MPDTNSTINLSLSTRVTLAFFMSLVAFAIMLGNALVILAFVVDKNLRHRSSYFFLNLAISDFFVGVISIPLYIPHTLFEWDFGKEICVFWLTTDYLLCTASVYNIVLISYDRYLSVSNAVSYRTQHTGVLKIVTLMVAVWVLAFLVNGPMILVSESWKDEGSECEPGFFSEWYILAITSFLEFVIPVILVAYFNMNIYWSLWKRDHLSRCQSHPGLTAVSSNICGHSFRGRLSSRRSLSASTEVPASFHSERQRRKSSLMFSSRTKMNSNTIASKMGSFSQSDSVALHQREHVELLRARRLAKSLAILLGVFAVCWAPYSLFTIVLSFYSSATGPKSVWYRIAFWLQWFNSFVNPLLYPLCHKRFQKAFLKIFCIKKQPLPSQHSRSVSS
# 5-hydroxytryptamine receptor 2B (Homo sapiens), sequence (P41595 whole entry): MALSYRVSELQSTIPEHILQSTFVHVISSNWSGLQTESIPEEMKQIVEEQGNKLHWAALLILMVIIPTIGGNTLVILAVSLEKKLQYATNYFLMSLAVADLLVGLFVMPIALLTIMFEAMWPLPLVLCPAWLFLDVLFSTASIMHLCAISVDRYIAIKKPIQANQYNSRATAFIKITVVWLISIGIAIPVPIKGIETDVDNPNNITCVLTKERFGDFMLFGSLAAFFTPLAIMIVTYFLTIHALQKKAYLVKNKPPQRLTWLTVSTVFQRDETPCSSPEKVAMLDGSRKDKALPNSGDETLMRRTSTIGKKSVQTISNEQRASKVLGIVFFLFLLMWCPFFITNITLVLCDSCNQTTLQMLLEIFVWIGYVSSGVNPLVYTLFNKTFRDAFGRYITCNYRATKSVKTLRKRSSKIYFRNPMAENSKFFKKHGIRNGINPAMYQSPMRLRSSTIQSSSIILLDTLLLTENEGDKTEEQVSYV
# Mu-type opioid receptor (Homo sapiens), sequence (P35372 whole entry): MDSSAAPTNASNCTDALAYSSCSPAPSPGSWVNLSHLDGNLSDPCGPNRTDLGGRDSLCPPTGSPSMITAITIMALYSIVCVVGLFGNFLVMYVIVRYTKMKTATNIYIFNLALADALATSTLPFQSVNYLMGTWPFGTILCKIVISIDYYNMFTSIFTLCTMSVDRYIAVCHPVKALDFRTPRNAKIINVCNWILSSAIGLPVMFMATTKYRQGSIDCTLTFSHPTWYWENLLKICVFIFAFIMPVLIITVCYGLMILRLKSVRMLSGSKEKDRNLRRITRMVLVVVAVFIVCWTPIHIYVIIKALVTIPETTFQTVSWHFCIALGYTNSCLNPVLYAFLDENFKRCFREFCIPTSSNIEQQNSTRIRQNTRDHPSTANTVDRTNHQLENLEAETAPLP
# Histamine H2 receptor (Homo sapiens), sequence (P25021 whole entry): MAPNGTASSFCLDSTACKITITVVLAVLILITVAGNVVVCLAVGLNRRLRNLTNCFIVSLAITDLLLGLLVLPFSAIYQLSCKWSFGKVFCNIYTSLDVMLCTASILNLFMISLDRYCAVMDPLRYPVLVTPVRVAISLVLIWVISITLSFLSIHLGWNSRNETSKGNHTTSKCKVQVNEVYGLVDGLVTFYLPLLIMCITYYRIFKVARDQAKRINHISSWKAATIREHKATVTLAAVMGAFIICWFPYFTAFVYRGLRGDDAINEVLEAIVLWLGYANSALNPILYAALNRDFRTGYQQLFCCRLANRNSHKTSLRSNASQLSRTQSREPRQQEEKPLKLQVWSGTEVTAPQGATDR
# D(1B) dopamine receptor (Homo sapiens), sequence (P21918 whole entry): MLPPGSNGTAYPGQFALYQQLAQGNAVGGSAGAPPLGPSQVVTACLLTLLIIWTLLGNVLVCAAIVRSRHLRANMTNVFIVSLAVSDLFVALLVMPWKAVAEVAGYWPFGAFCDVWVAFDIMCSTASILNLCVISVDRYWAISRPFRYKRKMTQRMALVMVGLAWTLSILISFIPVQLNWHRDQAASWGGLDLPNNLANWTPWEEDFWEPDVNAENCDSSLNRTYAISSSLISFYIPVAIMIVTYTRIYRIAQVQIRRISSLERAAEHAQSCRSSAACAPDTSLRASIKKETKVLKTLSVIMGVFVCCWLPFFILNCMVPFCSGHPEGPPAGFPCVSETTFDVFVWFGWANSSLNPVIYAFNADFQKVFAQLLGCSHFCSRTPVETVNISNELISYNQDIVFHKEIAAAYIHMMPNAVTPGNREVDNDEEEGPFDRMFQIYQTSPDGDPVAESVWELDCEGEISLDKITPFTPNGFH
# Histamine H3 receptor (Homo sapiens), sequence (Q9Y5N1 whole entry): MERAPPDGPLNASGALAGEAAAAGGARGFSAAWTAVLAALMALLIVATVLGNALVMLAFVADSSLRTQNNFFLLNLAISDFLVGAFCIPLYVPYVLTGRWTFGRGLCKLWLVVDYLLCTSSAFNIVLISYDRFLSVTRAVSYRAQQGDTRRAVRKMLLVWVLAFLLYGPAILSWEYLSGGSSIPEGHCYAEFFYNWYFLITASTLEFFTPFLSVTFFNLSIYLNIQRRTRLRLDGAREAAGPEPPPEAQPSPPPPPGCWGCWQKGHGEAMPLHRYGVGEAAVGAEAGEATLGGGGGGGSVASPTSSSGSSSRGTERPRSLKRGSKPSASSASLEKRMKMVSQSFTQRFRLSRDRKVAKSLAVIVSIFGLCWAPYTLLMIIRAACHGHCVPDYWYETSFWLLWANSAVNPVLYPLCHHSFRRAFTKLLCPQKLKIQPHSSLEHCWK
# Beta-3 adrenergic receptor (Homo sapiens), sequence (P13945 whole entry, looked up): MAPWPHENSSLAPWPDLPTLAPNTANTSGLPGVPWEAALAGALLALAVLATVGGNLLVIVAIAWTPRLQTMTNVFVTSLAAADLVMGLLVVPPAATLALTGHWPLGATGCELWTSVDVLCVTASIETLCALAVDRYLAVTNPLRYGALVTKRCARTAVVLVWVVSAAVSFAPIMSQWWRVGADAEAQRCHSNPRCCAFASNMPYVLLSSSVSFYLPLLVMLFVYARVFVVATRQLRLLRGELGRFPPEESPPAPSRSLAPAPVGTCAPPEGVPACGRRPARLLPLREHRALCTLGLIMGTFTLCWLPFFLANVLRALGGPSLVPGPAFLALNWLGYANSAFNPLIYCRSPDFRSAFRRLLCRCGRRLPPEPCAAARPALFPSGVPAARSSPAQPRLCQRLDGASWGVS
Compound,inhibition [1],inhibition [2],inhibition [3],inhibition [4],inhibition [5],inhibition [6],inhibition [7],inhibition [8],inhibition [9],inhibition [10],inhibition [11],inhibition [12],inhibition [13]
CC[C@@H]1CN2C(=O)N(C)c3nc(-c4ccccc4)[nH]c3C2=N1,-7.63%,-1.57%,1.36%,9.96%,27.4%,-5.22%,-3.92%,-1.79%,-6.84%,19.4%,0.52%,–,–
Cc1cc(C(=O)N2Cc3cnn(C)c3Nc3ccccc32)ccc1CNC(=O)N1CCC[C@H]1C(=S)N1CCCN(C)CC1,13.1%,-5.77%,49.6%,11%,24.4%,–,–,18.3%,12.3%,-2.29%,46.9%,–,–
C/C(=N\NC(=O)[C@@H]1C(=O)NC[C@H]1c1ccccc1)c1cccc(Br)c1,–,-7.78%,-1.51%,-9.13%,58.5%,7.14%,–,14.3%,50.1%,3.81%,20.4%,-1.53%,–
Cc1nc(C(=O)N2CCC[C@H]2Cc2nnc(-c3ccccc3)o2)c(-c2ccccc2F)s1,–,-1.4%,-9.02%,–,30.3%,22.7%,-2.37%,92.6%,7.98%,23.9%,-4.23%,26.4%,–
CCc1cc2c(c(CC)n1)CCC(=O)N2Cc1ccc(-c2ccccc2-c2nnn[nH]2)cc1,-6.38%,5.68%,1.99%,–,8.58%,–,–,10.5%,51.6%,9.68%,26.1%,–,–
O=C(Cc1ccccc1)Nc1nc2ccc(Cl)cc2c2nc(-c3ccco3)nn12,3.62%,9.95%,5.61%,–,29.1%,–,6.75%,-0.19%,17.8%,-9.26%,13.8%,-5.53%,–
Cc1csc2c(N[C@@H](C)CN3CCN(S(=O)(=O)c4ccc(Cl)c(Cl)c4)CC3)ncnc12,-8.93%,14.6%,6.35%,5.96%,20.4%,2.97%,9.69%,32.3%,14.7%,60.6%,45.2%,-3.91%,–
COc1ccc(/C=C/CCCCOc2ccc(C(=O)c3cccc(C(=O)O)c3)cc2CCC(=O)O)cc1,–,1.56%,–,–,18.1%,10.8%,4.74%,-2.42%,22.4%,30.7%,21.3%,1.82%,31.8%
Cc1cc(C)cc(C(=O)N(C)[C@H](Cc2ccc(-c3ccccc3)cc2)C(=O)N[C@@H](Cc2c[nH]c3ccccc23)C(=O)O)c1,-8.09%,11.1%,12.5%,–,15.5%,–,-4.33%,-6.62%,-1.4%,34.4%,34.1%,7.51%,–
C[C@@H](NCCc1ccc(O)cc1)[C@@H](O)c1ccc(O)cc1 (relative stereo),-0.38%,23.6%,24.4%,–,24.2%,0.59%,5.86%,34.1%,51.1%,56.6%,8.2%,0.11%,–
C[C@H](NC[C@H](O)CP(=O)(O)CC1CCCCC1)c1ccc(Cl)c(Cl)c1,–,-5.96%,8.07%,–,9.98%,17.5%,1.86%,0.95%,60.4%,38.3%,26%,8.86%,–
CC(C)NCC(O)c1ccc(N)c(C#N)c1 (stereo unspecified),-5.25%,-3.24%,-2.53%,–,34.1%,3.66%,0.52%,–,–,59.9%,5.77%,–,–
C[C@H](CO)Nc1nc(SCc2cccc(Cl)c2F)nc2[nH]c(=O)sc12,–,–,-2.82%,-1.9%,19%,5.16%,–,-6.11%,10.8%,-1.24%,40%,–,–
c1ccc(N2CCN(Cc3nc4ccccc4[nH]3)CC2)nc1,–,4.37%,22.3%,-1.78%,15.6%,0.89%,–,16.4%,4.96%,17.4%,10.1%,–,–
CC(C)C[C@H](NC(=O)N1CCCCCC1)C(=O)N[C@H](Cc1cn(C)c2ccccc12)C(=O)N[C@H](Cc1ccccn1)C(=O)O,-6.57%,0.48%,0.87%,-0.58%,5.31%,–,–,16%,16.7%,-0.31%,18%,–,–
CSc1ccc(C(=O)N[C@@H]2CCCC[C@@H]2NC(=O)CNC(=O)c2cc(C(F)(F)F)ccc2NC(=O)NC(C)C)cc1,-2.26%,–,28.4%,–,70.6%,4.61%,–,27.9%,28%,1.5%,28.4%,–,–
COc1ccc(S(=O)(=O)c2cc(OC)ccc2S(=O)(=O)c2ccc([C@H](C)NS(C)(=O)=O)cc2)cc1,-4.09%,7.85%,-2.24%,14.2%,-5.89%,–,–,23.7%,11.3%,1.41%,15.6%,–,–
N#Cc1cccc(C(=O)Nc2cc(-c3ccccc3)nn2-c2ccccc2)c1,-0.39%,–,3.6%,0.95%,-6.18%,7.12%,–,2.3%,6.88%,-5.54%,33%,–,–
